The compounds below were run against T1, GLP-1R (Homo sapiens, UniProt P43220) (assay: GLP-1R activation cAMP assay (Assay 1 or Assay 2)). Settings: cAMP increase in CHO cells stably expressing GLP-1R; compounds run on one of the two cAMP assays.
T1 construct: host or cells: CHO cells
T1 sequence (P43220 24-463): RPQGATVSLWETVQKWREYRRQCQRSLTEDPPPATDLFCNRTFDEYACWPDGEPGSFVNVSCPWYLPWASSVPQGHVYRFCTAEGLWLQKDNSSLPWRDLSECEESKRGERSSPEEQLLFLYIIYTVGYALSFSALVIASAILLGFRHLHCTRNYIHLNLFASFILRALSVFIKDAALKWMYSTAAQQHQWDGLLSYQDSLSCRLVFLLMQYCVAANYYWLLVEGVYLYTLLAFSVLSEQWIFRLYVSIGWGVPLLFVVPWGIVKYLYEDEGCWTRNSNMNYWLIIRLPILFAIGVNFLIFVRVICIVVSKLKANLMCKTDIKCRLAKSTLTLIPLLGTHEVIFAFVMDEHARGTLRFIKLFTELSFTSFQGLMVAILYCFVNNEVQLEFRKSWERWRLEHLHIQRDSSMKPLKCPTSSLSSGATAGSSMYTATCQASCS
Assay type: cell-based
Outline: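 EC50 values come from a sigmoidal fit of HTRF-detected cAMP rise versus log agonist concentration. GLP-1R-expressing CHO cells, equilibrated 1 h at 37 °C in HBSS with HEPES and BSA, received a 10-point compound dose series for 30 min before detection.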
`N#CC1(NC(=O)c2cc(Cl)c(COc3cccc(-c4cc(F)c(Cc5nc6c(F)cc(C(=O)O)cc6n5C[C@@H]5CCO5)cc4F)n3)cn2)CCC1` [Example 190, (S)-2-(4-(6-((4-chloro-6-((1-cyanocyclobutyl)carbamoyl)pyridin-3-yl)methoxy)pyridin-2-yl)-2,5-difluorobenzyl)-4-fluoro-1-(oxetan-2-ylmethyl)-1H-benzo[d]imidazole-6-carboxylic acid] was tested, and the EC50 was 0.2 nM. For `O=C(O)c1ccc2nc(Cc3cc(F)c(-c4cccc(OCc5cnc(C(=O)NCC(F)(F)F)cc5Cl)n4)cc3F)n(C[C@@H]3CCO3)c2c1` [Example 191, (S)-2-(4-(6-((4-chloro-6-((2,2,2-trifluoroethyl)carbamoyl)pyridin-3-yl)methoxy)pyridin-2-yl)-2,5-difluorobenzyl)-1-(oxetan-2-ylmethyl)-1H-benzo[d]imidazole-6-carboxylic acid], the EC50 was 0.69 nM. In the case of `O=C(O)c1ccc2nc(Cc3cc(F)c(-c4cccc(OCc5cnc(C(=O)NCC(F)F)cc5Cl)n4)cc3F)n(C[C@@H]3CCO3)c2c1` [Example 192, (S)-2-(4-(6-((4-chloro-6-((2,2-difluoroethyl)carbamoyl)pyridin-3-yl)methoxy)pyridin-2-yl)-2,5-difluorobenzyl)-1-(oxetan-2-ylmethyl)-1H-benzo[d]imidazole-6-carboxylic acid], the EC50 is reported as 0.32 nM. For `Cn1cc(CNC(=O)c2cc(Cl)c(COc3cccc(-c4cc(F)c(Cc5nc6ccc(C(=O)O)cc6n5C[C@@H]5CCO5)cc4F)n3)cn2)cn1` [Example 193, (S)-2-(4-(6-((4-chloro-6-(((1-methyl-1H-pyrazol-4-yl)methyl)carbamoyl)pyridin-3-yl)methoxy)pyridin-2-yl)-2,5-difluorobenzyl)-1-(oxetan-2-ylmethyl)-1H-benzo[d]imidazole-6-carboxylic acid], the EC50 was 0.22 nM. In the case of `Cn1cc(NC(=O)c2cc(Cl)c(COc3cccc(-c4cc(F)c(Cc5nc6ccc(C(=O)O)cc6n5C[C@@H]5CCO5)cc4F)n3)cn2)cn1` [Example 194, (S)-2-(4-(6-((4-chloro-6-((1-methyl-1H-pyrazol-4-yl)carbamoyl)pyridin-3-yl)methoxy)pyridin-2-yl)-2,5-difluorobenzyl)-1-(oxetan-2-ylmethyl)-1H-benzo[d]imidazole-6-carboxylic acid], the EC50 is reported as 0.17 nM. In the case of `Cn1nccc1CNC(=O)c1cc(Cl)c(COc2cccc(-c3cc(F)c(Cc4nc5ccc(C(=O)O)cc5n4C[C@@H]4CCO4)cc3F)n2)cn1` [Example 195, (S)-2-(4-(6-((4-chloro-6-(((1-methyl-1H-pyrazol-5-yl)methyl)carbamoyl)pyridin-3-yl)methoxy)pyridin-2-yl)-2,5-difluorobenzyl)-1-(oxetan-2-ylmethyl)-1H-benzo[d]imidazole-6-carboxylic acid], the EC50 is reported as 0.11 nM. `Cn1nccc1NC(=O)c1cc(Cl)c(COc2cccc(-c3cc(F)c(Cc4nc5ccc(C(=O)O)cc5n4C[C@@H]4CCO4)cc3F)n2)cn1` [Example 196, (S)-2-(4-(6-((4-chloro-6-((1-methyl-1H-pyrazol-5-yl)carbamoyl)pyridin-3-yl)methoxy)pyridin-2-yl)-2,5-difluorobenzyl)-1-(oxetan-2-ylmethyl)-1H-benzo[d]imidazole-6-carboxylic acid] showed an EC50 of 0.29 nM. Compound `N#CC1(NC(=O)c2ccc(COc3cccc(-c4cc(F)c(Cc5nc6c(F)cc(C(=O)O)cc6n5C[C@@H]5CCO5)cc4F)n3)cn2)CC1` [Example 197, (S)-2-(4-(6-((6-((1-cyanocyclopropyl)carbamoyl)pyridin-3-yl)methoxy)pyridin-2-yl)-2,5-difluorobenzyl)-4-fluoro-1-(oxetan-2-ylmethyl)-1H-benzo[d]imidazole-6-carboxylic acid] has an EC50 of 0.08 nM. For `CNC(=O)c1cc(Cl)c(COc2cccc(-c3cc(F)c(Cc4nc5c(F)cc(C(=O)O)cc5n4C[C@@H]4CCO4)cc3F)n2)cn1` [Example 198, (S)-2-(4-(6-((4-chloro-6-(methylcarbamoyl)pyridin-3-yl)methoxy)pyridin-2-yl)-2,5-difluorobenzyl)-4-fluoro-1-(oxetan-2-ylmethyl)-1H-benzo[d]imidazole-6-carboxylic acid], the EC50 was 0.04 nM. Work on `CC(C)(C#N)NC(=O)c1cc(Cl)c(COc2cccc(-c3cc(F)c(Cc4nc5ccc(C(=O)O)cc5n4C[C@@H]4CCO4)cc3F)n2)cn1` [Example 199, (S)-2-(4-(6-((4-chloro-6-((2-cyanopropan-2-yl)carbamoyl)pyridin-3-yl)methoxy)pyridin-2-yl)-2,5-difluorobenzyl)-1-(oxetan-2-ylmethyl)-1H-benzo[d]imidazole-6-carboxylic acid] yielded an EC50 of 0.53 nM. `C[C@H](C#N)NC(=O)c1cc(Cl)c(COc2cccc(-c3cc(F)c(Cc4nc5ccc(C(=O)O)cc5n4C[C@@H]4CCO4)cc3F)n2)cn1` [Example 200, 2-(4-(6-((4-chloro-6-(((R)-1-cyanoethyl)carbamoyl)pyridin-3-yl)methoxy)pyridin-2-yl)-2,5-difluorobenzyl)-1-(((S)-oxetan-2-yl)methyl)-1H-benzo[d]imidazole-6-carboxylic acid] gave an EC50 of 0.24 nM. For `C[C@@H](C#N)NC(=O)c1cc(Cl)c(COc2cccc(-c3cc(F)c(Cc4nc5ccc(C(=O)O)cc5n4C[C@@H]4CCO4)cc3F)n2)cn1` [Example 201, 2-(4-(6-((4-chloro-6-(((S)-1-cyanoethyl)carbamoyl)pyridin-3-yl)methoxy)pyridin-2-yl)-2,5-difluorobenzyl)-1-(((S)-oxetan-2-yl)methyl)-1H-benzo[d]imidazole-6-carboxylic acid], the EC50 was 0.39 nM. Work on `CC1(C)COC[C@@H]1n1c(Cc2cc(F)c(-c3cccc(OCc4ccc(C(=O)NC5(C#N)CC5)nc4)n3)cc2F)nc2ccc(C(=O)O)cc21` [Example 202, (R)-2-(4-(6-((6-((1-cyanocyclopropyl)carbamoyl)pyridin-3-yl)methoxy)pyridin-2-yl)-2,5-difluorobenzyl)-1-(4,4-dimethyltetrahydrofuran-3-yl)-1H-benzo[d]imidazole-6-carboxylic acid] yielded an EC50 of 0.58 nM. In the case of `NC(=O)c1ccc(COc2nccc(-c3cc(F)c(Cc4nc5ccc(C(=O)O)cc5n4C[C@@H]4CCO4)cc3F)n2)c(F)c1` [Example 203, (S)-2-(4-(2-((4-carbamoyl-2-fluorobenzyl)oxy)pyrimidin-4-yl)-2,5-difluorobenzyl)-1-(oxetan-2-ylmethyl)-1H-benzo[d]imidazole-6-carboxylic acid], the EC50 is reported as 1.1 nM. Work on `NC(=O)c1sc(COc2cccc(-c3cc(F)c(Cc4nc5ccc(C(=O)O)cc5n4C[C@@H]4CCO4)cc3F)n2)cc1F` [Example 204, 2-[[4-[6-[(5-carbamoyl-4-fluoro-2-thienyl)methoxy]-2-pyridyl]-2,5-difluoro-phenyl]methyl]-3-[[(2S)-oxetan-2-yl]methyl]benzimidazole-5-carboxylic acid] yielded an EC50 of 5.57 nM. For `N#Cc1sc(COc2cccc(-c3cc(F)c(Cc4nc5ccc(C(=O)O)cc5n4C[C@@H]4CCO4)cc3F)n2)cc1F` [Example 205, 2-[[4-[6-[(5-cyano-4-fluoro-2-thienyl)methoxy]-2-pyridyl]-2,5-difluoro-phenyl]methyl]-3-[[(2S)-oxetan-2-yl]methyl]benzimidazole-5-carboxylic acid], the EC50 was 0.25 nM. In the case of `Cn1nc(COc2cccc(-c3cc(F)c(Cc4nc5ccc(C(=O)O)cc5n4C[C@@H]4CCO4)cc3F)n2)cc1C(N)=O` [Example 206, (S)-2-(4-(6-((5-carbamoyl-1-methyl-1H-pyrazol-3-yl)methoxy)pyridin-2-yl)-2,5-difluorobenzyl)-1-(oxetan-2-ylmethyl)-1H-benzo[d]imidazole-6-carboxylic acid], the EC50 is reported as 43.3 nM. With `Cn1nc(COc2cccc(-c3cc(F)c(Cc4nc5ccc(C(=O)O)cc5n4C[C@@H]4CCO4)cc3F)n2)cc1C#N` [Example 207, (S)-2-(4-(6-((5-cyano-1-methyl-1H-pyrazol-3-yl)methoxy)pyridin-2-yl)-2,5-difluorobenzyl)-1-(oxetan-2-ylmethyl)-1H-benzo[d]imidazole-6-carboxylic acid] the EC50 was 0.46 nM. `NC(=O)c1cc(F)c(COc2nc(-c3cc(F)c(Cc4nc5c(F)cc(C(=O)O)cc5n4C[C@@H]4CCO4)cc3F)ccc2F)cn1` [Example 208, (S)-2-(4-(6-((6-carbamoyl-4-fluoropyridin-3-yl)methoxy)-5-fluoropyridin-2-yl)-2,5-difluorobenzyl)-4-fluoro-1-(oxetan-2-ylmethyl)-1H-benzo[d]imidazole-6-carboxylic acid] gave an EC50 of 0.02 nM. `NC(=O)c1cnc(COc2cccc(-c3cc(F)c(Cc4nc5ccc(C(=O)O)cc5n4C[C@@H]4CCO4)cc3F)n2)cn1` [Example 209, (S)-2-(4-(6-((5-carbamoylpyrazin-2-yl)methoxy)pyridin-2-yl)-2,5-difluorobenzyl)-1-(oxetan-2-ylmethyl)-1H-benzo[d]imidazole-6-carboxylic acid] was tested, and the EC50 was 0.14 nM. `O=C(O)c1ccc2nc(Cc3cc(F)c(-c4cccc(OCc5cn(C6CC6)nn5)n4)cc3F)n(C[C@@H]3CCO3)c2c1` [Example 210, 2-[[4-[6-[(1-cyclopropyltriazol-4-yl)methoxy]-2-pyridyl]-2,5-difluoro-phenyl]methyl]-3-[[(2S)-oxetan-2-yl]methyl]benzimidazole-5-carboxylic acid] gave an EC50 of 15.7 nM. `O=C(O)c1ccc2nc(Cc3cc(F)c(-c4cccc(OCc5ccc(-n6cnc(C7CC7)n6)nc5)n4)cc3F)n(C[C@@H]3CCO3)c2c1` [Example 211, 2-[[4-[6-[[6-(3-cyclopropyl-1,2,4-triazol-1-yl)-3-pyridyl]methoxy]-2-pyridyl]-2,5-difluoro-phenyl]methyl]-3-[[(2S)-oxetan-2-yl]methyl]benzimidazole-5-carboxylic acid] was tested, and the EC50 was 0.51 nM. `O=C(O)c1ccc2nc(Cc3cc(F)c(-c4cccc(OCc5ccc(-n6cc(C7CC7)nn6)nc5)n4)cc3F)n(C[C@@H]3CCO3)c2c1` [Example 212, (S)-2-(4-(6-((6-(4-cyclopropyl-1H-1,2,3-triazol-1-yl)pyridin-3-yl)methoxy)pyridin-2-yl)-2,5-difluorobenzyl)-1-(oxetan-2-ylmethyl)-1H-benzo[d]imidazole-6-carboxylic acid] was tested, and the EC50 was 0.1 nM. Work on `O=C(O)c1ccc2nc(Cc3cc(F)c(-c4cccc(OCc5ccc(-c6cn([C@@H]7CCOC7)nn6)cc5F)n4)cc3F)n(C[C@@H]3CCO3)c2c1` [Example 213] yielded an EC50 of 0.48 nM.
